This data set in a line: Pharmacokinetic evaluation in mouse plasma after oral gavage. In kind it is in vivo. The settings on record: 30 mg/kg oral, based on mean concentrations. The method, then:
MJK2134025 and GLPG 1690 were each administered as wet milled aqueous micro-suspensions at a concentration of 3 mg/g in 1% carboxymethyl cellulose and 0.5% Tween 80. Dosing of the formulations was performed at 10.0 g/kg body weight, corresponding to 30 mg/kg body weight. The food intake was measured (FIG. 19).
Prior blood collection, minicollect K3 EDTA vials were opened at room temperature to dry the EDTA in order to avoid blood dilution by the fluid content. Following oral gavage of the test formulations tail vein blood samples were taken at 15 min, 30 min, 1 h, 2 h, 4 h and 8 h. Samples were collected in dried minicollect K3 EDTA plasma vials. The blood samples (20-25 μl) were mixed and immediately cooled to 4° C. Subsequently, the samples were centrifuged at 3000 g for 5-10 min. Supernatants were collected in Eppendorf tubes and frozen and stored at −80° C. until further processing.
MJK2134025 and GLPG1690 were quantified in mouse plasma samples by LC-MS. Frozen mouse plasma samples were thawed on ice. Samples were then precipitated at a ratio of 1:10 (v:v) with 5 ng mL^−1 17:0 LPA in methanol (as an internal standard) in a 1.5 mL Eppendorf tube with microinsert (clear glass, flat bottom, 0.2 mL, 31×6 mm, LABSOLUTE, Germany). The Eppendorf tubes were mixed for 2 minutes at 4° C. and 1600 rpm in a Thermomixer C (Eppendorf, Germany). The Eppendorf tubes were centrifuged at 4° C. and 16.1 rcf for 2 minutes. The supernatant was transferred to HPLC vials for UHPLC-HRMS measurements as described in the following section. Calibration standards of MJK2134025 and GLPG1690 were prepared by adding the reference substances of MJK2134025 and GLPG1690 to blank samples (mouse plasma without substance). The calibration curve was generated at 7 concentrations and with a weighting of 1/×. The following concentrations were used for the stock solutions: 0.1, 0.5, 1, 2.5, 10, 50 and 200 μg·mL^−1 in methanol. To prepare the 200 μg·mL^−1 stock solution, 0.04 mL of 1 mg·mL^−1 MJK2134025 and 0.04 mL of 1 mg·mL^−1 GLPG1690 were mixed with 0.12 mL methanol. These stock solutions (5 μL each) were added to the blank plasma (45 μL). The sample was then mixed for 2 minutes at 4° C. and 1600 rpm in Thermomixer C (Eppendorf, Germany). Subsequent sample processing was the same as for the samples quantified. All quantifications should be considered as preliminary estimates as stable isotope-labeled reference substances were not available and individual matrix effects cannot be excluded.
All processed plasma samples were analyzed with a Vanquish Horizon UHPLC system (Thermo Fisher Scientific, Bremen, Germany) coupled to a Thermo Scientific QExactive HF-X Orbitrap mass spectrometer (Thermo Fisher Scientific, Bremen, Germany) using a UHPLC column (Luna R Omega 1.6 μm C18 100 Å, 100*2.1 mm). A solution of 5 mM ammonium formate in water containing 0.1% formic acid (eluent A) and a 5 mM solution of ammonium formate in acetonitrile: H2O (95:5, % v:v) containing 0.1% formic acid (eluent B) were used as the mobile phase. A flow rate of 0.3 mL/min was used under the following gradient conditions: 30% eluent B for 1 minute, then linear increase to 98% in 14 minutes, holding 98% of eluent B for 5 minutes, and then decreasing to 30% in 0.5 minutes, followed by isocratic holding for 3.5 minutes. The column temperature was maintained at 25° C. Samples were kept at 4° C., and 8 μL was injected into the UHPLC-MS. The QExactive HF-X Orbitrap was acquired at a resolution of 60000 at full half-width and in both positive and negative modes. The following HESI source parameters were used: capillary voltage of 3.8 kV (negative mode) and 3.5 kV (positive mode), capillary temperature of 320° C., funnel RF level 40, sheath gas pressure 49 (N2>95%), auxiliary gas 10 (N2>95%), auxiliary gas heater temperature 300° C. The automatic gain control (AGC) was set to 10E+6. A scan range of m/z 400 to 600 was selected, and the injection time was set to 200 ms. […]

On to `O=C(OCc1cc(C(F)(F)F)cc(C(F)(F)F)c1)N1CCN(CCS(=O)(=O)c2ccc3nn[nH]c3c2)CC1` [MJK2134025, 3,5-bis(trifluoromethyl)benzyl 4-(2-((1H-benzo[d][1,2,3]triazol-6-yl)sulfonyl)ethyl)piperazine-1-carboxylate], for which the exposure (AUC) (in general, the area under the concentration-time curve, a measure of exposure) turned out to be 303 µg·h/mL; the highest level (Cmax) was 56.4 µg/mL; the time to peak (Tmax) – broadly, the time from dosing to the highest level – turned out to be 2 h.

The values are drawn from patent publication US20240391903A1, “AUTOTAXIN-INHIBITORS” (UNIVERSITAET MUENSTER, priority 2021, published 2024).
